The values that follow come from patent US6939989B2, “Side-chain halogenated amino dicarboxylic acid derivatives as medicaments for treating cardiovascular diseases” (Bayer Aktiengesellschaft, priority 2001, dated 2005).

The assay relates to porcine serum-induced rat liver fibrosis. The assay can be described thus: Antifibrotic action in vivo, porcine serum-induced rat liver fibrosis. The arrangement: species or system Female Sprague Dawley rats. The following applies: seven weeks. The text has this:
The antifibrotic action of the substances was investigated using the model of the porcine serum-induced rat liver fibrosis. Treatment with heterologous serum, for example porcine serum in rats, is a method frequently used in the literature for inducing fibrosis of the liver with subsequent cirrhosis which, in contrast to other models, causes only minimal damage and inflammation of the parenchyma cells of the liver (Bhunchet, E. and Wake, K. (1992): Role of mesenchymal cell populations in porcine serum-induced rat liver fibrosis. Hepatology 16: 1452-1473). […] After seven weeks of treatment, the animals were killed and the livers were removed in order to quantify the collagen content. […]
Fast Green was used as counterstain to enhance contrasts. In each section, the extent of liver fibrosis was determined as a percentage of the area stained by Pikrosirius Red of the total area measured. […] 64 fields of a standardized grid of 31 mm^2 were measured using a final amplification of 100. […]
To determine OH-proline according to Prockop and Udenfried (Prockop, D. J. and Udenfried, S. A. (1960): A specific method for the analysis of hydroxyproline in tissues and urine. Anal. Biochem. 1: 228-239), in each case 50-100 mg of liver tissue were dried and boiled with 6N HCl for about 17 hours. […] After 3 hours of incubation at 35° C., absorption at 573 nm was measured. […]

Take `O=C(O)CCCCN(CCc1ccccc1OCc1ccc(-c2ccc(C(F)(F)F)cc2)cc1Cl)Cc1ccc(C(=O)O)cc1` [Example 6]: the “Reduction of collagen deposits in the liver (OH-proline, morphometric fibrosis measurement)” value is “about a half” (0.03 mg/kg p.o. o.d.) and “about a half” (0.1 mg/kg p.o. o.d.).
